{"source": "patent US9133115B2", "about": "(ACHILLION PHARMACEUTICALS, INC., priority 2008, dated 2015)", "data": [{"system": "HCV replicon", "experiment": "HCV replicon replication assay (NPT ELISA) in Huh-7 replicon-containing cells", "format": "cell-based", "conditions": "Hepatitis C virus, 72 h; HCV replicon in Huh-7 cells, three days incubation; read-out: EC50", "summary_of_the_method": "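Huh-7 cells carrying a bicistronic HCV replicon (HCV-IRES-neo, EMCV-IRES-driven NS3–NS5B, 3′-NTR) were seeded at 6000-7500 cells/well, grown 24 h to 60-70% confluence, then treated with graded compound concentrations. Replication was read as NPT level by capture ELISA (rabbit anti-NPTII, Eu-N1 secondary); interferon alpha served as positive control.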", "units": {"EC50": "nM"}, "values": [{"smiles": "C=C[C@@H]1C[C@]1(NC(=O)[C@@H]1C[C@@H](Oc2cc(-c3ccccn3)nc3c(C)c(OC)ccc23)CN1C(=O)[C@@H](CC(=O)N1CCCC(F)(F)C1)C(C)(C)C)C(=O)NS(=O)(=O)C1CC1", "note": "[Compound 246, (2S,4R)-1-((S)-2-tert-butyl-4-(3,3-difluoropiperidin-1-yl)-4-oxobutanoyl)-N-((2S)-1-(cyclopropyl-sulfonylcarbamoyl)-2-vinylcyclopropyl)-4-(7-methoxy-8-methyl-2-(pyridin-2-yl)quinolin-4-yloxy)pyrrolidine-2-carboxamide]", "EC50": "< 1000"}, {"smiles": "C=C[C@@H]1C[C@]1(NC(=O)[C@@H]1C[C@@H](Oc2nccc3c(Cl)c(OC)ccc23)CN1C(=O)[C@@H](CC(=O)N1CCCC(F)(F)C1)C(C)(C)C)C(=O)NS(=O)(=O)C1CC1", "note": "[Compound 247, (2S,4R)-1-((S)-2-tert-butyl-4-(3,3-difluoropiperidin-1-yl)-4-oxobutanoyl)-4-(5-chloro-6-methoxyisoquinolin-1-yloxy)-N-((2S)-1-(cyclopropyl-sulfonylcarbamoyl)-2-vinylcyclo-propyl)pyrrolidine-2-carboxamide]", "EC50": "< 1000"}, {"smiles": "C=C[C@@H]1C[C@]1(NC(=O)[C@@H]1C[C@@H](Oc2cc(-c3nc(C(C)C)cs3)nc3c(C)c(OC)ccc23)CN1C(=O)[C@@H](CC(=O)N1CCCC(F)(F)C1)C(C)(C)C)C(=O)NS(=O)(=O)C1CC1", "note": "[Compound 248, (2S,4R)-1-((S)-2-tert-butyl-4-(3,3-difluoropiperidin-1-yl)-4-oxobutanoyl)-N-((2S)-1-(cyclopropyl-sulfonylcarbamoyl)-2-vinylcyclopropyl)-4-(2-(4-isopropylthiazol-2-yl)-7-methoxy-8-methylquinolin-4-yloxy)pyrrolidine-2-carboxamide]", "EC50": "< 1000"}, {"smiles": "C=C[C@@H]1C[C@]1(NC(=O)[C@@H]1C[C@@H](Oc2cc(-c3nc(C(C)C)cs3)nc3cc(OC)ccc23)CN1C(=O)[C@@H](CC(=O)N1CCCC(F)(F)C1)C(C)(C)C)C(=O)NS(=O)(=O)C1CC1", "note": "[Compound 251, (2S,4R)-1-((S)-2-tert-butyl-4-(3,3-difluoropiperidin-1-yl)-4-oxobutanoyl)-N-((2S)-1-(cyclopropyl-sulfonylcarbamoyl)-2-vinylcyclopropyl)-4-(2-(4-isopropylthiazol-2-yl)-7-methoxyquinolin-4-yloxy)pyrrolidine-2-carboxamide]", "EC50": "< 1000"}, {"smiles": "C=C[C@@H]1C[C@]1(NC(=O)[C@@H]1C[C@@H](Oc2cc(-c3cccnc3)nc3c(C)c(OC)ccc23)CN1C(=O)[C@@H](CC(=O)N1CCCC(F)(F)C1)C(C)(C)C)C(=O)NS(=O)(=O)C1CC1", "note": "[Compound 252, (2S,4R)-1-((S)-2-tert-butyl-4-(3,3-difluoropiperidin-1-yl)-4-oxobutanoyl)-N-((2S)-1-(cyclopropyl-sulfonylcarbamoyl)-2-vinylcyclopropyl)-4-(7-methoxy-8-methyl-2-(pyridin-3-yl)quinolin-4-yloxy)pyrrolidine-2-carboxamide]", "EC50": "< 1000"}, {"smiles": "C=CC1C[C@]1(NC(=O)[C@@H]1C[C@@H](Oc2cc(-c3csc(C(C)C)n3)nc3c(C)c(OC)ccc23)CN1C(=O)[C@@H](CC(=O)N1CCCC(F)(F)C1)C(C)(C)C)C(=O)NS(=O)(=O)C1CC1", "note": "(stereo partly drawn) [Compound 254, (2S,4R)-1-((S)-2-tert-butyl-4-(3,3-difluoropiperidin-1-yl)-4-oxobutanoyl)-N-((1R)-1-(cyclopropyl-sulfonylcarbamoyl)-2-vinylcyclopropyl)-4-(2-(2-isopropylthiazol-4-yl)-7-methoxy-8-methylquinolin-4-yloxy)pyrrolidine-2-carboxamide]", "EC50": "< 1000"}, {"smiles": "C=C[C@@H]1C[C@]1(NC(=O)[C@@H]1C[C@@H](Oc2cc(-c3nc(C(C)C)cs3)nc3c(C)c(OC)ccc23)CN1C(=O)[C@@H](CC(=O)N1CCCCC1)C(C)(C)C)C(=O)NS(=O)(=O)C1CC1", "note": "[Compound 255, (2S,4R)-1-((S)-2-tert-butyl-4-oxo-4-(piperidin-1-yl)butanoyl)-N-((2S)-1-(cyclopropyl-sulfonylcarbamoyl)-2-vinylcyclopropyl)-4-(2-(4-isopropylthiazol-2-yl)-7-methoxy-8-methylquinolin-4-yloxy)pyrrolidine-2-carboxamide]", "EC50": "< 1000"}]}]}
